Measured values as given in PubChem BioAssay (NCI).
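Cells were grown in 96-well plates and exposed to each compound for 48 hours at five concentrations; endpoints were interpolated linearly between bracketing concentrations, or set to the highest concentration if not reached. At the GI50, growth is halved. TGI: total growth inhibition.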

Key:
Assay in all cases: inhibition of tumour cell growth, NCI panel, 48 h
BT-549 breast = system: BT-549 breast
SNB-75 CNS = system: SNB-75 CNS
A498 renal = system: A498 renal
SK-MEL-5 melanoma = system: SK-MEL-5 melanoma
ACHN renal = system: ACHN renal
SR leukemia = system: SR leukemia
K-562 leukemia = system: K-562 leukemia
OVCAR-5 ovarian = system: OVCAR-5 ovarian
SK-MEL-28 melanoma = system: SK-MEL-28 melanoma
SNB-19 CNS = system: SNB-19 CNS
UACC-257 melanoma = system: UACC-257 melanoma
NCI-H460 lung = system: NCI-H460 lung
CAKI-1 renal = system: CAKI-1 renal
NCI-H226 lung = system: NCI-H226 lung
HS 578T breast = system: HS 578T breast
UO-31 renal = system: UO-31 renal
PC-3 prostate = system: PC-3 prostate
RPMI-8226 leukemia = system: RPMI-8226 leukemia
OVCAR-8 ovarian = system: OVCAR-8 ovarian
MCF7 breast = system: MCF7 breast
T-47D breast = system: T-47D breast
SW-620 colon = system: SW-620 colon
SN12C renal = system: SN12C renal
HT29 colon = system: HT29 colon
HCC-2998 colon = system: HCC-2998 colon
COLO 205 colon = system: COLO 205 colon
UACC-62 melanoma = system: UACC-62 melanoma
U251 CNS = system: U251 CNS
MDA-MB-435 = system: MDA-MB-435
TK-10 renal = system: TK-10 renal
HOP-62 NSCLC = system: HOP-62 NSCLC
MDA-MB-231 breast = system: MDA-MB-231 breast
SF-295 CNS = system: SF-295 CNS
HL-60(TB) leukemia = system: HL-60(TB) leukemia
OVCAR-3 ovarian = system: OVCAR-3 ovarian
SK-OV-3 ovarian = system: SK-OV-3 ovarian
NCI-H23 lung = system: NCI-H23 lung
KM12 colon = system: KM12 colon
LOX IMVI melanoma = system: LOX IMVI melanoma
NCI-H522 lung = system: NCI-H522 lung
SF-539 CNS = system: SF-539 CNS
SF-268 CNS = system: SF-268 CNS
MALME-3M melanoma = system: MALME-3M melanoma
SK-MEL-2 melanoma = system: SK-MEL-2 melanoma
A549 NSCLC = system: A549 NSCLC
NCI/ADR-RES ovarian = system: NCI/ADR-RES ovarian
MOLT-4 leukemia = system: MOLT-4 leukemia
DU-145 prostate = system: DU-145 prostate
HOP-92 NSCLC = system: HOP-92 NSCLC
786-0 renal = system: 786-0 renal
OVCAR-4 ovarian = system: OVCAR-4 ovarian
CCRF-CEM leukemia = system: CCRF-CEM leukemia
IGROV1 ovarian = system: IGROV1 ovarian
M14 melanoma = system: M14 melanoma

Work on `COc1ccc2c(c1)O/C(=C\c1ncc([N+](=O)[O-])n1C)C2=O` yielded a GI50 (BT-549 breast) of 684 nM, a TGI (BT-549 breast) of 2940 nM and a GI50 (SNB-75 CNS) of 974 nM. It also gave a TGI (SNB-75 CNS) of 3780 nM, a GI50 (A498 renal) of 1200 nM and a TGI (A498 renal) of 2680 nM. It also gave a GI50 (SK-MEL-5 melanoma) of 246 nM, a TGI (SK-MEL-5 melanoma) of 837 nM and a GI50 (ACHN renal) of 158 nM. For the same compound, the TGI (ACHN renal) was 495 nM, the GI50 (SR leukemia) was 29.4 nM and the GI50 (K-562 leukemia) was 414 nM. For the same compound, the GI50 (OVCAR-5 ovarian) was 1870 nM, the TGI (OVCAR-5 ovarian) was 6390 nM and the GI50 (SK-MEL-28 melanoma) was 371 nM. It also gave a TGI (SK-MEL-28 melanoma) of 2550 nM, a GI50 (SNB-19 CNS) of 1180 nM and a TGI (SNB-19 CNS) of 6260 nM. For the same compound, the GI50 (UACC-257 melanoma) was 590 nM, the TGI (UACC-257 melanoma) was 2160 nM and the GI50 (NCI-H460 lung) was 201 nM. The TGI (NCI-H460 lung) was 619 nM, the GI50 (CAKI-1 renal) was 202 nM and the TGI (CAKI-1 renal) was 544 nM. The GI50 (NCI-H226 lung) was 1430 nM, the TGI (NCI-H226 lung) was 4270 nM and the GI50 (HS 578T breast) was 641 nM. The TGI (HS 578T breast) was over 21900 nM, the GI50 (UO-31 renal) was 334 nM and the TGI (UO-31 renal) was 1890 nM. The GI50 (PC-3 prostate) was 2240 nM, the TGI (PC-3 prostate) was over 29200 nM and the GI50 (RPMI-8226 leukemia) was 1340 nM. It also gave a TGI (RPMI-8226 leukemia) of 5750 nM, a GI50 (OVCAR-8 ovarian) of 245 nM and a TGI (OVCAR-8 ovarian) of 1940 nM. It also gave a GI50 (MCF7 breast) of 495 nM, a TGI (MCF7 breast) of 9370 nM and a GI50 (T-47D breast) of 5460 nM. The TGI (T-47D breast) was over 100000 nM, the GI50 (SW-620 colon) was 178 nM and the TGI (SW-620 colon) was 1310 nM. The GI50 (SN12C renal) was 472 nM, the TGI (SN12C renal) was 2090 nM and the GI50 (HT29 colon) was 291 nM. For the same compound, the TGI (HT29 colon) was 1390 nM, the GI50 (HCC-2998 colon) was 899 nM and the TGI (HCC-2998 colon) was 4190 nM. It also gave a GI50 (COLO 205 colon) of 363 nM, a TGI (COLO 205 colon) of 2240 nM and a GI50 (UACC-62 melanoma) of 848 nM. It also gave a TGI (UACC-62 melanoma) of 2410 nM, a GI50 (U251 CNS) of 812 nM and a TGI (U251 CNS) of 3050 nM. It also gave a GI50 (MDA-MB-435) of 224 nM, a TGI (MDA-MB-435) of 735 nM and a GI50 (TK-10 renal) of 1260 nM. It also gave a TGI (TK-10 renal) of over 20000 nM, a GI50 (HOP-62 NSCLC) of 1100 nM and a TGI (HOP-62 NSCLC) of 4180 nM. For the same compound, the GI50 (MDA-MB-231 breast) was 256 nM, the TGI (MDA-MB-231 breast) was 1380 nM and the GI50 (SF-295 CNS) was 1400 nM. It also gave a TGI (SF-295 CNS) of 5310 nM, a GI50 (HL-60(TB) leukemia) of 331 nM and a GI50 (OVCAR-3 ovarian) of 376 nM. It also gave a TGI (OVCAR-3 ovarian) of 1880 nM, a GI50 (SK-OV-3 ovarian) of 1560 nM and a TGI (SK-OV-3 ovarian) of 6860 nM. It also gave a GI50 (NCI-H23 lung) of 257 nM, a TGI (NCI-H23 lung) of 1320 nM and a GI50 (KM12 colon) of 776 nM. For the same compound, the TGI (KM12 colon) was 2810 nM, the GI50 (LOX IMVI melanoma) was 256 nM and the TGI (LOX IMVI melanoma) was 889 nM. It also gave a GI50 (NCI-H522 lung) of 266 nM, a TGI (NCI-H522 lung) of 927 nM and a GI50 (SF-539 CNS) of 1270 nM. For the same compound, the TGI (SF-539 CNS) was 3200 nM, the GI50 (SF-268 CNS) was 268 nM and the TGI (SF-268 CNS) was 1140 nM. It also gave a GI50 (MALME-3M melanoma) of 379 nM, a TGI (MALME-3M melanoma) of 1700 nM and a GI50 (SK-MEL-2 melanoma) of 1130 nM. For the same compound, the TGI (SK-MEL-2 melanoma) was 3700 nM, the GI50 (A549 NSCLC) was 561 nM and the TGI (A549 NSCLC) was 4540 nM. It also gave a GI50 (NCI/ADR-RES ovarian) of 584 nM, a TGI (NCI/ADR-RES ovarian) of 9510 nM and a GI50 (MOLT-4 leukemia) of 45.3 nM. It also gave a GI50 (DU-145 prostate) of 285 nM, a TGI (DU-145 prostate) of 794 nM and a GI50 (HOP-92 NSCLC) of 555 nM. For the same compound, the TGI (HOP-92 NSCLC) was 4050 nM, the GI50 (786-0 renal) was 805 nM and the TGI (786-0 renal) was 3890 nM. It also gave a GI50 (OVCAR-4 ovarian) of 2520 nM, a TGI (OVCAR-4 ovarian) of over 100000 nM and a GI50 (CCRF-CEM leukemia) of 264 nM. For the same compound, the TGI (CCRF-CEM leukemia) was 2020 nM, the GI50 (IGROV1 ovarian) was 558 nM and the TGI (IGROV1 ovarian) was 9860 nM. For the same compound, the GI50 (M14 melanoma) was 363 nM and the TGI (M14 melanoma) was 1530 nM.
